Tested on: carrageenan induced paw edema
Experiment: Anti-inflammatory activity: acute carrageenan induced paw edema in rats
Format: in vivo, Wister rats
Details: 10 mg kg^−1 indomethacin mol equivalent; for % inhibition of edema / Mean edema thickness: intraperitoneally; for Mean edema thickness: mean ± SE; for Potency (% inhibition of edema relative to that of indomethacin reference standard): at 4 h effect
Protocol: The anti-inflammatory activity of the tested compounds was determined in vivo by the acute carrageenan induced paw edema standard method in rats. See, Naumov, et al., Bioorg. Med. Chem. Lett, 25: 2314-2320 (2015), Tiwari, et al., Org. Biomol. Chem, 12: 7238-7249 (2014), Girgis, et al., Eur. J. Med. Chem, 50: 1-8 (2012), Barsoum, et al., Eur. J. Med. Chem, 44: 2172-2177 (2009), Girgis, et al., Eur. J. Med. Chem, 44: 1972-1977 (2009), Girgis, et al., Eur. J. Med. Chem, 44: 1257-1264 (2009), Girgis, et al., Eur. J. Med. Chem, 44: 91-100 (2009), Girgis, et al., Eur. J. Med. Chem, 43: 2116-2121 (2008), Girgis, et al., Bioorg. Med. Chem, 14: 8527-8532 (2006), and Barsoum, et al., Bioorg. Med. Chem, 14: 3929-3937 (2006).
Adult Wister rats of either sex (pregnant female animals were excluded) weighing 120-150 g were divided into 18 groups of 6 animals each. […] The control group was given DMSO only. Carrageenan paw edema was induced by subcutaneous injection of freshly prepared 1% solution of carrageenan in saline (0.9%, 0.1 ml per rat) into subplantar tissue of the right hind paw of rats. The thickness of the paw was measured (in mm) after successive time intervals (1, 2,3,4 and 24 h) and compared with the initial hind paw thickness of each rat for determining the edema thickness. Data were collected, checked, revised and analyzed. Quantitative variables from normal distribution were expressed as means±SE “standard error”. The anti-inflammatory activity was expressed as percentage inhibition of edema thickness in treated animals in comparison with the control group according to eqn. (1)
Where, Vc and Vt are the mean of edema paw thickness for the control and tested compound treated animal groups, respectively.

For `COc1cc(/C=C/C(=O)CC(=O)/C=C/c2ccc(OC(=O)[C@H](C)NC(=O)OCC3c4ccccc4-c4ccccc43)c(OC)c2)ccc1OC(=O)[C@H](C)NC(=O)OCC1c2ccccc2-c2ccccc21` [Compound 14], the “% inhibition of edema” value (1 h) was 12%, the Mean edema thickness (1 h) was 2.12 ± 0.29 mm and the “% inhibition of edema” value (2 h) was 23%. For the same compound, the Mean edema thickness (2 h) was 1.59 ± 0.15 mm, the “% inhibition of edema” value (3 h) was 43% and the Mean edema thickness (3 h) was 1.02 ± 0.17 mm. The “% inhibition of edema” value (4 h) was 56%, the Mean edema thickness (4 h) was 0.62 ± 0.09 mm and the “% inhibition of edema” value (24 h) was 51%. For the same compound, the Mean edema thickness (24 h) was 0.41 ± 0.05 mm and the “Potency (% inhibition of edema relative to that of indomethacin reference standard)” value was 64.

For `COc1cc(/C=C/C(=O)CC(=O)/C=C/c2ccc(OC(=O)[C@@H](NC(=O)OCC3c4ccccc4-c4ccccc43)C(C)C)c(OC)c2)ccc1OC(=O)[C@@H](NC(=O)OCC1c2ccccc2-c2ccccc21)C(C)C` [Compound 15], the “% inhibition of edema” value (1 h) was 22%, the Mean edema thickness (1 h) was 1.88 ± 0.22 mm and the “% inhibition of edema” value (2 h) was 49%. The Mean edema thickness (2 h) was 1.05 ± 0.23 mm, the “% inhibition of edema” value (3 h) was 50% and the Mean edema thickness (3 h) was 0.90 ± 0.17 mm. The “% inhibition of edema” value (4 h) was 53%, the Mean edema thickness (4 h) was 0.66 ± 0.19 mm and the “% inhibition of edema” value (24 h) was 47%. For the same compound, the Mean edema thickness (24 h) was 0.44 ± 0.11 mm and the “Potency (% inhibition of edema relative to that of indomethacin reference standard)” value was 61.

In the case of `COc1cc(/C=C/C(=O)CC(=O)/C=C/c2ccc(OC(=O)[C@H](CC(C)C)NC(=O)OCC3c4ccccc4-c4ccccc43)c(OC)c2)ccc1OC(=O)[C@H](CC(C)C)NC(=O)OCC1c2ccccc2-c2ccccc21` [Compound 16], the “% inhibition of edema” value (1 h) is reported as 40%, the Mean edema thickness (1 h) is reported as 1.45 ± 0.18 mm and the “% inhibition of edema” value (2 h) is reported as 41%. The Mean edema thickness (2 h) was 1.22 ± 0.25 mm, the “% inhibition of edema” value (3 h) was 48% and the Mean edema thickness (3 h) was 0.93 ± 0.20 mm. For the same compound, the “% inhibition of edema” value (4 h) was 50%, the Mean edema thickness (4 h) was 0.70 ± 0.19 mm and the “% inhibition of edema” value (24 h) was 40%. The Mean edema thickness (24 h) was 0.50 ± 0.10 mm and the “Potency (% inhibition of edema relative to that of indomethacin reference standard)” value was 57.

`COc1cc(/C=C/C(=O)CC(=O)/C=C/c2ccc(OC(=O)[C@H](CCSC)NC(=O)OCC3c4ccccc4-c4ccccc43)c(OC)c2)ccc1OC(=O)[C@H](CCSC)NC(=O)OCC1c2ccccc2-c2ccccc21` [Compound 17] was tested, and the “% inhibition of edema” value (1 h) was 46%, the Mean edema thickness (1 h) was 1.30 ± 0.04 mm and the “% inhibition of edema” value (2 h) was 73%. The Mean edema thickness (2 h) was 0.56 ± 0.17 mm, the “% inhibition of edema” value (3 h) was 75% and the Mean edema thickness (3 h) was 0.45 ± 0.18 mm. For the same compound, the “% inhibition of edema” value (4 h) was 98%, the Mean edema thickness (4 h) was 0.03 ± 0.01 mm and the “% inhibition of edema” value (24 h) was 23%. For the same compound, the Mean edema thickness (24 h) was 0.64 ± 0.02 mm and the “Potency (% inhibition of edema relative to that of indomethacin reference standard)” value was 113.

For `COc1cc(/C=C/C(=O)CC(=O)/C=C/c2ccc(OC(=O)[C@H](Cc3ccccc3)NC(=O)OCC3c4ccccc4-c4ccccc43)c(OC)c2)ccc1OC(=O)[C@H](Cc1ccccc1)NC(=O)OCC1c2ccccc2-c2ccccc21` [Compound 18], the “% inhibition of edema” value (1 h) was 10%, the Mean edema thickness (1 h) was 2.17 ± 0.24 mm and the “% inhibition of edema” value (2 h) was 41%. For the same compound, the Mean edema thickness (2 h) was 1.22 ± 0.16 mm, the “% inhibition of edema” value (3 h) was 54% and the Mean edema thickness (3 h) was 0.82 ± 0.08 mm. For the same compound, the “% inhibition of edema” value (4 h) was 60%, the Mean edema thickness (4 h) was 0.56 ± 0.04 mm and the “% inhibition of edema” value (24 h) was 5%. For the same compound, the Mean edema thickness (24 h) was 0.79 ± 0.02 mm and the “Potency (% inhibition of edema relative to that of indomethacin reference standard)” value was 69.

In the case of `COc1cc(/C=C/C(=O)CC(=O)/C=C/c2ccc(OC(=O)[C@@H](C)NC(=O)OCc3ccccc3)c(OC)c2)ccc1OC(=O)[C@@H](C)NC(=O)OCc1ccccc1` [Compound 19], the “% inhibition of edema” value (1 h) is reported as 82%, the Mean edema thickness (1 h) is reported as 0.43 ± 0.08 mm and the “% inhibition of edema” value (2 h) is reported as 89%. The Mean edema thickness (2 h) was 0.23 ± 0.04 mm, the “% inhibition of edema” value (3 h) was 95% and the Mean edema thickness (3 h) was 0.09 ± 0.03 mm. The “% inhibition of edema” value (4 h) was 100%, the Mean edema thickness (4 h) was 0.00 ± 0.00 mm and the “% inhibition of edema” value (24 h) was 49%. The Mean edema thickness (24 h) was 0.42 ± 0.06 mm and the “Potency (% inhibition of edema relative to that of indomethacin reference standard)” value was 115.

For `COc1cc(/C=C/C(=O)CC(=O)/C=C/c2ccc(OC(=O)[C@@H](CCSC)NC(=O)OCc3ccccc3)c(OC)c2)ccc1OC(=O)[C@@H](CCSC)NC(=O)OCc1ccccc1` [Compound 20], the “% inhibition of edema” value (1 h) was 79%, the Mean edema thickness (1 h) was 0.51 ± 0.04 mm and the “% inhibition of edema” value (2 h) was 80%. The Mean edema thickness (2 h) was 0.41 ± 0.03 mm, the “% inhibition of edema” value (3 h) was 85% and the Mean edema thickness (3 h) was 0.27 ± 0.01 mm. The “% inhibition of edema” value (4 h) was 94%, the Mean edema thickness (4 h) was 0.08 ± 0.02 mm and the “% inhibition of edema” value (24 h) was 90%. For the same compound, the Mean edema thickness (24 h) was 0.08 ± 0.01 mm and the “Potency (% inhibition of edema relative to that of indomethacin reference standard)” value was 108.

With `COc1cc(/C=C/C(=O)CC(=O)/C=C/c2ccc(OC(=O)[C@H](CCC(N)=O)NC(=O)OCc3ccccc3)c(OC)c2)ccc1OC(=O)[C@H](CCC(N)=O)NC(=O)OCc1ccccc1` [Compound 21] the “% inhibition of edema” value (1 h) was 51%, the Mean edema thickness (1 h) was 1.18 ± 0.11 mm and the “% inhibition of edema” value (2 h) was 47%. The Mean edema thickness (2 h) was 1.09 ± 0.19 mm, the “% inhibition of edema” value (3 h) was 45% and the Mean edema thickness (3 h) was 0.99 ± 0.09 mm. The “% inhibition of edema” value (4 h) was 44%, the Mean edema thickness (4 h) was 0.78 ± 0.10 mm and the “% inhibition of edema” value (24 h) was 4%. The Mean edema thickness (24 h) was 0.80 ± 0.05 mm and the “Potency (% inhibition of edema relative to that of indomethacin reference standard)” value was 51.

In the case of `COc1cc(/C=C/C(=O)CC(=O)/C=C/c2ccc(OC(=O)CNC(=O)OC(C)(C)C)c(OC)c2)ccc1OC(=O)CNC(=O)OC(C)(C)C` [Compound 22], the “% inhibition of edema” value (1 h) is reported as 43%, the Mean edema thickness (1 h) is reported as 1.37 ± 0.18 mm and the “% inhibition of edema” value (2 h) is reported as 44%. The Mean edema thickness (2 h) was 1.16 ± 0.14 mm, the “% inhibition of edema” value (3 h) was 44% and the Mean edema thickness (3 h) was 1.00 ± 0.11 mm. For the same compound, the “% inhibition of edema” value (4 h) was 48%, the Mean edema thickness (4 h) was 0.73 ± 0.09 mm and the “% inhibition of edema” value (24 h) was 47%. The Mean edema thickness (24 h) was 0.44 ± 0.05 mm and the “Potency (% inhibition of edema relative to that of indomethacin reference standard)” value was 55.

`COc1cc(/C=C/C(=O)CC(=O)/C=C/c2ccc(OC(=O)[C@H](Cc3ccccc3)NC(=O)OC(C)(C)C)c(OC)c2)ccc1OC(=O)[C@H](Cc1ccccc1)NC(=O)OC(C)(C)C` [Compound 23] was tested, and the “% inhibition of edema” value (1 h) was 39%, the Mean edema thickness (1 h) was 1.47 ± 0.16 mm and the “% inhibition of edema” value (2 h) was 44%. For the same compound, the Mean edema thickness (2 h) was 1.16 ± 0.09 mm, the “% inhibition of edema” value (3 h) was 53% and the Mean edema thickness (3 h) was 0.85 ± 0.11 mm. The “% inhibition of edema” value (4 h) was 59%, the Mean edema thickness (4 h) was 0.58 ± 0.03 mm and the “% inhibition of edema” value (24 h) was 51%. The Mean edema thickness (24 h) was 0.41 ± 0.02 mm and the “Potency (% inhibition of edema relative to that of indomethacin reference standard)” value was 68.

In the case of `COc1cc(/C=C/C(=O)CC(=O)/C=C/c2ccc(OC(=O)[C@H](C)NC(=O)OC(C)(C)C)c(OC)c2)ccc1OC(=O)[C@H](C)NC(=O)OC(C)(C)C` [Compound 24], the “% inhibition of edema” value (1 h) is reported as 6%, the Mean edema thickness (1 h) is reported as 2.26 ± 0.20 mm and the “% inhibition of edema” value (2 h) is reported as 11%. The Mean edema thickness (2 h) was 1.84 ± 0.17 mm, the “% inhibition of edema” value (3 h) was 20% and the Mean edema thickness (3 h) was 1.44 ± 0.14 mm. For the same compound, the “% inhibition of edema” value (4 h) was 28%, the Mean edema thickness (4 h) was 1.04 ± 0.18 mm and the “% inhibition of edema” value (24 h) was 5%. For the same compound, the Mean edema thickness (24 h) was 0.79 ± 0.17 mm and the “Potency (% inhibition of edema relative to that of indomethacin reference standard)” value was 32.

For `COc1cc(/C=C/C(=O)CC(=O)/C=C/c2ccc(OC(=O)C(C)NC(=O)OC(C)(C)C)c(OC)c2)ccc1OC(=O)C(C)NC(=O)OC(C)(C)C` (centres unmarked) [Compound 25], the “% inhibition of edema” value (1 h) was 11%, the Mean edema thickness (1 h) was 2.15 ± 0.14 mm and the “% inhibition of edema” value (2 h) was 16%. For the same compound, the Mean edema thickness (2 h) was 1.74 ± 0.18 mm, the “% inhibition of edema” value (3 h) was 25% and the Mean edema thickness (3 h) was 1.34 ± 0.20 mm. The “% inhibition of edema” value (4 h) was 40%, the Mean edema thickness (4 h) was 0.84 ± 0.12 mm and the “% inhibition of edema” value (24 h) was 29%. For the same compound, the Mean edema thickness (24 h) was 0.59 ± 0.09 mm and the “Potency (% inhibition of edema relative to that of indomethacin reference standard)” value was 46.

`COc1cc(/C=C/C(=O)CC(=O)/C=C/c2ccc(OC(=O)[C@@H](C)NC(=O)OC(C)(C)C)c(OC)c2)ccc1OC(=O)[C@@H](C)NC(=O)OC(C)(C)C` [Compound 26] was tested, and the “% inhibition of edema” value (1 h) was 22%, the Mean edema thickness (1 h) was 1.87 ± 0.13 mm and the “% inhibition of edema” value (2 h) was 29%. The Mean edema thickness (2 h) was 1.46 ± 0.21 mm, the “% inhibition of edema” value (3 h) was 39% and the Mean edema thickness (3 h) was 1.09 ± 0.11 mm. For the same compound, the “% inhibition of edema” value (4 h) was 42%, the Mean edema thickness (4 h) was 0.81 ± 0.08 mm and the “% inhibition of edema” value (24 h) was 37%. For the same compound, the Mean edema thickness (24 h) was 0.52 ± 0.05 mm and the “Potency (% inhibition of edema relative to that of indomethacin reference standard)” value was 48.

Reference: patent US10660967B2, “Curcumin conjugates and methods of use thereof” (priority 2016, dated 2020)
